Experimental data published in patent US9539260B2, “Dihydro-benzo-oxazine and dihydro-pyrido-oxazine derivatives” (Novartis AG, priority 2012, dated 2017).
pIC50: −log10 of the molar value.

What was measured:
[1] = target: PI3K alpha (Homo sapiens (Human), UniProt P42336); assay: Enzymatic PI3K alpha isoform inhibition (lipid kinase activity, Kinase-Glo luminescence); format: biochemical; conditions: Enzymatic assay
Summary of the method: (§1)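 ATP-depletion format: 10 nM PI3K with 5 μg/mL phosphatidylinositol and 2 μM ATP, run to ~50% ATP consumption, then Kinase-Glo added and remaining ATP read by luminescence after 5 min. IC50 from 4-parameter logistic fit, typically over 8 concentrations 10–0.003 μM.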

[2] = target: PI3K delta (Homo sapiens (Human), UniProt O00329); assay: Enzymatic PI3K delta isoform inhibition (lipid kinase activity, Kinase-Glo luminescence); format: biochemical; conditions: Enzymatic assay
Summary of the method: as §1

[3] = target: myristoylated catalytic subunit of human PI3K delta in Rat-1 cells (Homo sapiens (Human), UniProt O00329); assay: PI3K-mediated Akt 1/2 (S473) phosphorylation in Rat-1 cells, PI3K delta; format: cell-based; conditions: Rat-1 cells overexpressing myristoylated human PI3K delta; p-Akt (S473) AlphaScreen SureFire; read-out: Cell PI3Kδ/ IC50
Description: 2.1 Phosphoinositide-3 Kinase (PI3K)-Mediated Akt 1/2 (S473) Phosphorylation in Rat-1 Cells
Rat-1 cells stably overexpressing a myristoylated form of the catalytic subunit of human phosphoinositide-3 kinase (PI3K) alpha, beta or delta were plated in 384-well plates at a density of 7500 (PI3K alpha), 6200 (PI3K beta), or 4000 (PI3K delta) cells in 30 ul complete growth medium (Dulbecco's modified Eagle's medium (DMEM high glucose) supplemented with 10% (v/v) fetal bovine serum, 1% (v/v) MEM non essential amino acids, 10 mM HEPES, 2 mM L-glutamine, 10 μg/mL puromycin and 1% (v/v) Penicillin/Streptomycin) and were incubated at […]/5% CO2/95% humidity for 24 h. Compounds were diluted in 384-well compound plates to obtain 8-point serial dilutions for 40 test compounds in 90% DMSO, as well as 4 reference compounds plus 16 high controls and 16 low (inhibited) controls. Predilution plates were prepared by dispensing pipetting 250 nl of compound solutions into 384-well polypropylen plates using a Hummingwell nanoliter dispensor. Compounds were prediluted by the addition of 49.75 ul complete growth medium. 10 ul of prediluted compound solution were transferred to the cell plate using a 384-well pipettor, resulting in a final DMSO concentration of 0.11%.
Cells were incubated for 1 h at […]/5% CO2/95% humidity. The supernatant was removed, the cells were lysed in 20 ul of lysis buffer for AlphaScreen® SureFire® detection.
For detection of p-AKT(Ser473), the SureFire® p-Akt 1/2 (Ser473) Assay Kit (PerkinElmer, U.S.A) was used. 5 ul of cell lysate was transferred to 384-well low volume Proxiplates for detection using a 384-well pipettor. Addition of AlphaScreen® SureFire® reagents was done according to the manufacturer's protocol. First, 5 ul of reaction buffer plus activation buffer mix containing AlphaScreen® acceptor beads was added, the plate was sealed, and incubated on a plate shaker for 2 hours at room temperature. Second, 2 ul of dilution buffer containing AlphaScreen® donor beads was added, and the plate was incubated on plate shaker as above for a further 2 hours. The plate was read on an AlphaScreen® compatible plate reader, using standard AlphaScreen® settings.

Sequence of PI3K alpha (P42336 other isoform, or with tags, fused parts or gaps): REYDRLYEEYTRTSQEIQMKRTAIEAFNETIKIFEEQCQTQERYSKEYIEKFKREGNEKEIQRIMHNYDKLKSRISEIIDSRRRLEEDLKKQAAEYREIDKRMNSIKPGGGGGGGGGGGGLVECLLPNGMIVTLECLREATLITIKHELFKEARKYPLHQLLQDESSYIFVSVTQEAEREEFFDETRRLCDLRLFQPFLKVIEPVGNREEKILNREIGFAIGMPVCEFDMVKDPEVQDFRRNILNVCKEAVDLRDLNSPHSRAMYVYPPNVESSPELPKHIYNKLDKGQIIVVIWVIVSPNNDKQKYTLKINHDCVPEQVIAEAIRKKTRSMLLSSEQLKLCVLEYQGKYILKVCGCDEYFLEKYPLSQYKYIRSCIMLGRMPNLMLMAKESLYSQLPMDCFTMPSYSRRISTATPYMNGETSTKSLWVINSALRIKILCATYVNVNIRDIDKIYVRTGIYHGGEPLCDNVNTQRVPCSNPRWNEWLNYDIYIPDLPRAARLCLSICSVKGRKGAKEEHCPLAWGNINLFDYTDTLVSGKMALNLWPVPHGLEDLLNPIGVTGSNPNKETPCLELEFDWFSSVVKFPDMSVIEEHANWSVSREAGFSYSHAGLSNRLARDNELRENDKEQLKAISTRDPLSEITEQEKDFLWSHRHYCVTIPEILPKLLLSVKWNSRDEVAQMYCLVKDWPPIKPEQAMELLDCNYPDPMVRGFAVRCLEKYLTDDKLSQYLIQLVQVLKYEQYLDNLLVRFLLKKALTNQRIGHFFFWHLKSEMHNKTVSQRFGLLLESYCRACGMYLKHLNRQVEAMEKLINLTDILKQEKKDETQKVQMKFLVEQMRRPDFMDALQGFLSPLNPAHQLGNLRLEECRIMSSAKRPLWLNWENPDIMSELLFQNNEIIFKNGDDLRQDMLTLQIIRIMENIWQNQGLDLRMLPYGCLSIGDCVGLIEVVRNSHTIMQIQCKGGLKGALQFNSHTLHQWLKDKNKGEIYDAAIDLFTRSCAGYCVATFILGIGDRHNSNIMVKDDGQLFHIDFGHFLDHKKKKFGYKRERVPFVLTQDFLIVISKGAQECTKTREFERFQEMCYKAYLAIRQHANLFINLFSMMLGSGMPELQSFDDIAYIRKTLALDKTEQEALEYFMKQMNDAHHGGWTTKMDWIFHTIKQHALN
Sequence of PI3K delta (O00329 other isoform, or with tags, fused parts or gaps linker GGGGGG): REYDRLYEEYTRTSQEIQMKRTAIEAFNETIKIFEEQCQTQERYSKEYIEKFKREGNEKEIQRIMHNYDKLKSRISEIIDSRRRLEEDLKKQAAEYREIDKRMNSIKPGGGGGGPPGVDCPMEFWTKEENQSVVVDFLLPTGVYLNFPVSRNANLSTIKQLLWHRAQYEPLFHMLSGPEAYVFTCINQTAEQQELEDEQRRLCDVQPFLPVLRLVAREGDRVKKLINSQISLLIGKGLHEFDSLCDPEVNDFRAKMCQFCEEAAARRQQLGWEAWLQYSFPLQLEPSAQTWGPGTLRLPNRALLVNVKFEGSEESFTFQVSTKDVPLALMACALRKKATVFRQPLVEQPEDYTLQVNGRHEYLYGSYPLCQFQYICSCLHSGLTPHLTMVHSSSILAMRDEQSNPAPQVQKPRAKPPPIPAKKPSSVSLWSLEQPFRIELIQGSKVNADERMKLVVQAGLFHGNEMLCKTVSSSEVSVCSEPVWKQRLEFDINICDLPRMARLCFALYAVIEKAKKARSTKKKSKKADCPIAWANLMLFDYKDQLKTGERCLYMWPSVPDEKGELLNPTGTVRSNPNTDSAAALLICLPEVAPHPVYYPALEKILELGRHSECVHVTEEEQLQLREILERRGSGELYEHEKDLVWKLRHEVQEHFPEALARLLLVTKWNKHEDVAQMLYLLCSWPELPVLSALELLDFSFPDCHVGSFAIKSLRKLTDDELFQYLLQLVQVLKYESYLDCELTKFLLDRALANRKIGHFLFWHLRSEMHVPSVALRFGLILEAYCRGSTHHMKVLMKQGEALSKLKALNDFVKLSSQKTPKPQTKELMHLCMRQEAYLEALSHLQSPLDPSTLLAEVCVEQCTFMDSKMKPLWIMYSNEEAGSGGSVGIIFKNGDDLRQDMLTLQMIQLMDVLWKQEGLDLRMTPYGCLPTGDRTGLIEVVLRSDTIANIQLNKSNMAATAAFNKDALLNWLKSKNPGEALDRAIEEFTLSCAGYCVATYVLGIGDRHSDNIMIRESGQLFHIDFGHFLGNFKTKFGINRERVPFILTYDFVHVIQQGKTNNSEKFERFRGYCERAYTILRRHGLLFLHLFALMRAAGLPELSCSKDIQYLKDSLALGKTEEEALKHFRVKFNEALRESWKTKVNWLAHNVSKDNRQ
Sequence of myristoylated catalytic subunit of human PI3K delta in Rat-1 cells (O00329 whole entry): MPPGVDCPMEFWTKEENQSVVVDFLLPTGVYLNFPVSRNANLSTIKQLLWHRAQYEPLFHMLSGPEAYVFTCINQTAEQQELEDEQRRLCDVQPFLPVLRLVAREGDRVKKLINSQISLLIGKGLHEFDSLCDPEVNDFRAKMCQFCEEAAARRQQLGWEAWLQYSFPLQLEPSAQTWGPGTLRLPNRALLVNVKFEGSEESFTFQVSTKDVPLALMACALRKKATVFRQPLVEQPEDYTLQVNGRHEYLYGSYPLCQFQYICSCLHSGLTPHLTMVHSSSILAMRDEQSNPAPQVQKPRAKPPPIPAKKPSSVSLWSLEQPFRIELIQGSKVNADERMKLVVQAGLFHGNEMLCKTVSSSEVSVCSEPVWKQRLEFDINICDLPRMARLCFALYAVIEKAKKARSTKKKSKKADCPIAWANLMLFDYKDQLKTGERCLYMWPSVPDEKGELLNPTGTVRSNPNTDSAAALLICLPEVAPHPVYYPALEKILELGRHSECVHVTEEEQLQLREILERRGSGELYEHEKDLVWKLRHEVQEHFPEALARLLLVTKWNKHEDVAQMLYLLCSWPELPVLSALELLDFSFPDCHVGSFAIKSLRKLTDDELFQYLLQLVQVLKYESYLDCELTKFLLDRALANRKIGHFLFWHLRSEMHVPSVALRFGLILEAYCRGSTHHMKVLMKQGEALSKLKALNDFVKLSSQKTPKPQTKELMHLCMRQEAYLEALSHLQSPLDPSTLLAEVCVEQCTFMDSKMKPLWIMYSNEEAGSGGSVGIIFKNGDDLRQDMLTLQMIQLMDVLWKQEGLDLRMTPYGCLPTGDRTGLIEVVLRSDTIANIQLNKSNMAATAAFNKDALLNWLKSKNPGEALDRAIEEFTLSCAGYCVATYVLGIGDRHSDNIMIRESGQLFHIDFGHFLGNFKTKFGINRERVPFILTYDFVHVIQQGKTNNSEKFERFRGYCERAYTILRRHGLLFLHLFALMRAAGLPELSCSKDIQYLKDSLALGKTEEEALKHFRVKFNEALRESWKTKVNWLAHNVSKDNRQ

Row | SMILES | pIC50 [1] | pIC50 [2] | pIC50 [3]
1 | COc1ncc(N2CCOc3ccc(O[C@H]4CCN(C(=O)[C@H]5CC[C@H](O)CC5)C4)cc32)cc1F [Example B117, {(S)-3-[4-(5-Fluoro-6-methoxy-pyridin-3-yl)-3,4-dihydro-2H-benzo[1,4]oxazin-6-yloxy]-pyrrolidin-1-yl}-(4-hydroxy-cyclohexyl)-methanone] | 5.92 | 8.10 | 
2 | CCC(=O)N1CC[C@H](Oc2ccc3c(c2)N(c2cnc(N)c(OC)c2)CCO3)C1 [Example A14, 1-{(S)-3-[4-(6-Amino-5-methoxy-pyridin-3-yl)-3,4-dihydro-2H-benzo[1,4]oxazin-6-yloxy]-pyrrolidin-1-yl}-propan-1-one] | < 5.04 | 5.27 | 
3 | CCC(=O)N1CC[C@H](Oc2ccc3c(c2)N(c2ccc(OC)c(OC)c2)CCO3)C1 [Example A35, 1-{(S)-3-[4-(3,4-Dimethoxy-phenyl)-3,4-dihydro-2H-benzo[1,4]oxazin-6-yloxy]-pyrrolidin-1-yl}-propan-1-one] | 5.25 | 5.85 | 
4 | CCC(=O)N1CC[C@H](Oc2ccc3c(c2)N(c2cnc(OC)c(F)c2)CCO3)C1 [Example A11, 1-{(S)-3-[4-(5-Fluoro-6-methoxy-pyridin-3-yl)-3,4-dihydro-2H-benzo[1,4]oxazin-6-yloxy]-pyrrolidin-1-yl}-propan-1-one] | 5.64 | 7.16 | 
5 | COc1ncc(N2CCOc3ccc(O[C@H]4CCN(C(=O)C5CCS(=O)(=O)CC5)C4)c(C)c32)cc1C [V, (1,1-Dioxo-hexahydro-1lambda*6*-thiopyran-4-yl)-{(S)-3-[4-(6-methoxy-5-methyl-pyridin-3-yl)-5-methyl-3,4-dihydro-2H-benzo[1,4]oxazin-6-yloxy]-pyrrolidin-1-yl}-methanone] | 5.50 | 7.10 | 
6 | CS(=O)(=O)c1ncc(N2CCOc3ccc(O[C@H]4CCN(C(=O)C5CCOCC5)C4)cc32)cc1F [Example B86, {(S)-3-[4-(5-Fluoro-6-methanesulfonyl-pyridin-3-yl)-3,4-dihydro-2H-benzo[1,4]oxazin-6-yloxy]-pyrrolidin-1-yl}-(tetrahydro-pyran-4-yl)-methanone] | 5.18 | 7.21 | 
7 | CCC(=O)N1CC[C@@H](Oc2ccc3c(c2)N(c2ccc(OC)nc2)CCO3)C1 [Example C3, 1-{(R)-3-[4-(6-Methoxy-pyridin-3-yl)-3,4-dihydro-2H-benzo[1,4]oxazin-6-yloxy]-pyrrolidin-1-yl}-propan-1-one] | 5.47 | 5.92 | 
8 | COc1ncc(N2CCOc3cnc(O[C@H]4CCN(C(=O)c5cn6ccsc6n5)C4)cc32)cc1C(F)(F)F [Example G1, Imidazo[2,1-b]thiazol-6-yl-{(S)-3-[1-(6-methoxy-5-trifluoromethyl-pyridin-3-yl)-2,3-dihydro-1H-pyrido[3,4-b][1,4]oxazin-7-yloxy]-pyrrolidin-1-yl}-methanone] | 7.31 | 7.77 | 
9 | CCC(=O)N1CC[C@H](Oc2ccc3c(c2)N(c2cnc(OC)c(OC)c2)CCO3)C1 [Example B4, 1-{(S)-3-[4-(5,6-Dimethoxy-pyridin-3-yl)-3,4-dihydro-2H-benzo[1,4]oxazin-6-yloxy]-pyrrolidin-1-yl}-propan-1-one] | 5.91 | 7.08 | 

Second part, the compound after the results:

Row | pIC50 [1] | pIC50 [2] | pIC50 [3] | SMILES
10 | 6.47 | 8.22 | 7.30 | COc1ncc(N2CCOc3cnc(O[C@H]4CCN(C(=O)c5cn(C)cn5)C4)cc32)cc1F [Example F3, {(S)-3-[1-(5-Fluoro-6-methoxy-pyridin-3-yl)-2,3-dihydro-1H-pyrido[3,4-b][1,4]oxazin-7-yloxy]-pyrrolidin-1-yl}-(1-methyl-1H-imidazol-4-yl)-methanone]
11 | 6.52 | 6.94 |  | COc1ncc(N2CCOc3ccc(O[C@H]4CCN(C(=O)c5nnc(C)o5)C4)cc32)cc1C#N [Example C12, 2-Methoxy-5-{6-[(S)-1-(5-methyl-[1,3,4]oxadiazole-2-carbonyl)-pyrrolidin-3-yloxy]-2,3-dihydro-benzo[1,4]oxazin-4-yl}-nicotinonitrile]
12 | 6.14 | 8.10 |  | COc1ncc(N2CCOc3ccc(O[C@H]4CCN(C(=O)C5COCCO5)C4)cc32)cc1F (single isomer, unassigned) [Example H15]
13 | 5.94 | 7.48 |  | CCc1cc(N2CCOc3ccc(O[C@H]4CCN(C(=O)C5CCS(=O)(=O)CC5)C4)cc32)cnc1OC [Example B19, (1,1-Dioxo-hexahydro-1lambda*6*-thiopyran-4-yl)-{(S)-3-[4-(5-ethyl-6-methoxy-pyridin-3-yl)-3,4-dihydro-2H-benzo[1,4]oxazin-6-yloxy]-pyrrolidin-1-yl}-methanone]
14 | 6.08 | 8.22 |  | Cc1cc(N2CCOc3ccc(O[C@H]4CCN(C(=O)C5CCOCC5)C4)c(F)c32)cnc1S(C)(=O)=O [Example I3]
15 | 6.37 | 7.62 |  | COc1ncc(N2CCOc3ccc(O[C@H]4CCN(C(=O)[C@@H]5CCN(C(C)=O)C5)C4)cc32)cc1C [Example B122, 1-((R)-3-{(S)-3-[4-(6-Methoxy-5-methyl-pyridin-3-yl)-3,4-dihydro-2H-benzo[1,4]oxazin-6-yloxy]-pyrrolidine-1-carbonyl}-pyrrolidin-1-yl)-ethanone]
16 | 6.42 | > 8.52 |  | Cc1cc(N2CCOc3cnc(O[C@H]4CCN(C(=O)C5CC5)C4)cc32)cnc1OC(F)F [Example E11, Cyclopropyl-{(S)-3-[1-(6-difluoromethoxy-5-methyl-pyridin-3-yl)-2,3-dihydro-1H-pyrido[3,4-b][1,4]oxazin-7-yloxy]-pyrrolidin-1-yl}-methanone]
17 | 6.38 | 8.30 |  | COc1ncc(N2CCOc3ccc(O[C@H]4CCN(C(=O)C5CCOC5)C4)cc32)cc1C (stereo partly drawn) [Example B94, {(S)-3-[4-(6-Methoxy-5-methyl-pyridin-3-yl)-3,4-dihydro-2H-benzo[1,4]oxazin-6-yloxy]-pyrrolidin-1-yl}-(tetrahydro-furan-3-yl)-methanone]
18 | 7.06 | 8.22 |  | COc1ncc(N2CCOc3ccc(O[C@H]4CCN(C(=O)C5CCOCC5)C4)cc32)cc1C(F)F [Example B120, {(S)-3-[4-(5-Difluoromethyl-6-methoxy-pyridin-3-yl)-3,4-dihydro-2H-benzo[1,4]oxazin-6-yloxy]-pyrrolidin-1-yl}-(tetrahydro-pyran-4-yl)-methanone]
